From the NIST ThermoML archive (doi:10.1021/je049743g)
“And” between values parts separate entries of the source, which are not always exact repeats. Equal values may be shown once.

Assay: wn = mass fraction of the nth substance listed
Settings: Capillary rise

FC(C(F)(F)F)C(F)(F)F [1,1,1,2,3,3,3-heptafluoropropane] + FCF
Settings | surface tension liquid-gas
252.66 K, w2 = 0.3988 | 12.74 mN/m and 12.77 mN/m
252.82 K, w2 = 0.3003 | 12.41 mN/m
254.68 K, w2 = 0.3983 | 12.35 mN/m and 12.37 mN/m
254.83 K, w2 = 0.544 | 12.71 mN/m
255.1 K, w2 = 0.2998 | 12.14 mN/m and 12.13 mN/m
256.92 K, w2 = 0.354 | 11.85 mN/m
257.09 K, w2 = 0.5434 | 12.37 mN/m and 12.38 mN/m
257.1 K, w2 = 0.2993 | 11.77 mN/m and 11.79 mN/m
257.1 K, w2 = 0.3977 | 12.02 mN/m and 12.03 mN/m
258.83 K, w2 = 0.5429 | 11.97 mN/m
258.84 K, w2 = 0.7282 | 12.63 mN/m and 12.65 mN/m
258.88 K, w2 = 0.3972 | 11.74 mN/m
259 K, w2 = 0.2988 | 11.52 mN/m and 11.51 mN/m
260.89 K, w2 = 0.3528 | 11.26 mN/m and 11.25 mN/m
260.99 K, w2 = 0.5423 | 11.65 mN/m
261.01 K, w2 = 0.2982 | 11.3 mN/m
261.05 K, w2 = 0.3966 | 11.49 mN/m and 11.48 mN/m
262.75 K, w2 = 0.2977 | 11 mN/m and 10.97 mN/m
262.79 K, w2 = 0.3521 | 11.06 mN/m
262.8 K, w2 = 0.7274 | 12.12 mN/m and 12.08 mN/m
262.85 K, w2 = 0.3961 | 11.14 mN/m
262.96 K, w2 = 0.5417 | 11.34 mN/m
262.98 K, w2 = 0.3961 | 11.14 mN/m and 11.18 mN/m
264.66 K, w2 = 0.727 | 11.63 mN/m and 11.62 mN/m
264.68 K, w2 = 0.5412 | 11.11 mN/m and 11.09 mN/m
264.87 K, w2 = 0.3955 | 10.9 mN/m and 10.92 mN/m
264.88 K, w2 = 0.3514 | 10.71 mN/m and 10.75 mN/m
264.96 K, w2 = 0.297 | 10.65 mN/m
266.51 K, w2 = 0.2966 | 10.42 mN/m and 10.44 mN/m
266.75 K, w2 = 0.5405 | 10.75 mN/m and 10.74 mN/m
266.88 K, w2 = 0.3507 | 10.44 mN/m and 10.47 mN/m
267.04 K, w2 = 0.3948 | 10.5 mN/m and 10.52 mN/m
268.37 K, w2 = 0.296 | 10.2 mN/m and 10.23 mN/m
268.37 K, w2 = 0.54 | 10.53 mN/m and 10.52 mN/m
268.63 K, w2 = 0.7261 | 11.05 mN/m and 11 mN/m
268.72 K, w2 = 0.3943 | 10.33 mN/m
268.79 K, w2 = 0.35 | 10.2 mN/m and 10.23 mN/m
270.7 K, w2 = 0.3936 | 10.06 mN/m and 10.03 mN/m
270.78 K, w2 = 0.3493 | 9.92 mN/m
270.78 K, w2 = 0.5392 | 10.1 mN/m
270.81 K, w2 = 0.2952 | 9.83 mN/m and 9.86 mN/m
272.17 K, w2 = 0.7252 | 10.38 mN/m
272.9 K, w2 = 0.2945 | 9.56 mN/m and 9.6 mN/m
272.91 K, w2 = 0.7249 | 10.28 mN/m
273.15 K, w2 = 0.3928 | 9.64 mN/m and 9.66 mN/m
273.15 K, w2 = 0.5383 | 9.73 mN/m
273.6 K, w2 = 0.3482 | 9.51 mN/m
275.16 K, w2 = 0.2937 | 9.29 mN/m and 9.31 mN/m
275.3 K, w2 = 0.392 | 9.26 mN/m and 9.29 mN/m
275.48 K, w2 = 0.5375 | 9.44 mN/m
275.5 K, w2 = 0.3474 | 9.19 mN/m and 9.23 mN/m
275.5 K, w2 = 0.7242 | 9.87 mN/m and 9.89 mN/m
276.85 K, w2 = 0.2931 | 9.01 mN/m and 9.05 mN/m
277.27 K, w2 = 0.3913 | 9.02 mN/m and 9.06 mN/m
277.3 K, w2 = 0.7237 | 9.66 mN/m and 9.65 mN/m
277.39 K, w2 = 0.3466 | 8.95 mN/m and 8.98 mN/m
277.43 K, w2 = 0.5367 | 9.29 mN/m
279.39 K, w2 = 0.7231 | 9.32 mN/m and 9.34 mN/m
279.42 K, w2 = 0.2921 | 8.71 mN/m
279.43 K, w2 = 0.5359 | 8.92 mN/m
279.46 K, w2 = 0.3457 | 8.67 mN/m
279.6 K, w2 = 0.3904 | 8.74 mN/m and 8.76 mN/m
281.21 K, w2 = 0.3898 | 8.45 mN/m and 8.46 mN/m
281.3 K, w2 = 0.5351 | 8.65 mN/m and 8.64 mN/m
281.45 K, w2 = 0.3448 | 8.4 mN/m and 8.41 mN/m
281.51 K, w2 = 0.2913 | 8.39 mN/m
281.54 K, w2 = 0.7224 | 8.9 mN/m and 8.93 mN/m
283.11 K, w2 = 0.2907 | 8.2 mN/m
283.17 K, w2 = 0.389 | 8.23 mN/m
283.29 K, w2 = 0.7219 | 8.59 mN/m and 8.61 mN/m
283.3 K, w2 = 0.5342 | 8.39 mN/m and 8.4 mN/m
283.49 K, w2 = 0.3439 | 8.13 mN/m
284.67 K, w2 = 0.5336 | 8.04 mN/m and 8.07 mN/m
285.18 K, w2 = 0.7212 | 8.37 mN/m
285.19 K, w2 = 0.3882 | 7.93 mN/m and 7.99 mN/m
285.24 K, w2 = 0.2898 | 7.93 mN/m and 7.9 mN/m
285.46 K, w2 = 0.343 | 7.94 mN/m and 7.95 mN/m
286.62 K, w2 = 0.3876 | 7.79 mN/m
286.86 K, w2 = 0.2891 | 7.75 mN/m and 7.71 mN/m
287.47 K, w2 = 0.342 | 7.57 mN/m
287.63 K, w2 = 0.5322 | 7.69 mN/m and 7.73 mN/m
289.31 K, w2 = 0.5314 | 7.44 mN/m and 7.45 mN/m
289.33 K, w2 = 0.7197 | 7.78 mN/m
289.37 K, w2 = 0.288 | 7.41 mN/m
289.37 K, w2 = 0.3411 | 7.34 mN/m and 7.38 mN/m
289.42 K, w2 = 0.3863 | 7.45 mN/m
289.68 K, w2 = 0.2879 | 7.29 mN/m
289.89 K, w2 = 0.7195 | 7.55 mN/m and 7.53 mN/m
290.16 K, w2 = 0.386 | 7.2 mN/m
291.25 K, w2 = 0.2872 | 7.12 mN/m
291.47 K, w2 = 0.34 | 7.14 mN/m
291.47 K, w2 = 0.5304 | 7.13 mN/m and 7.18 mN/m
291.5 K, w2 = 0.3854 | 7.05 mN/m and 7.03 mN/m
291.53 K, w2 = 0.2871 | 7.07 mN/m and 7.05 mN/m
291.66 K, w2 = 0.3853 | 7.07 mN/m and 7.11 mN/m
291.67 K, w2 = 0.5303 | 7.18 mN/m and 7.16 mN/m
291.93 K, w2 = 0.7187 | 7.33 mN/m and 7.35 mN/m
293.1 K, w2 = 0.2864 | 6.87 mN/m
293.2 K, w2 = 0.3391 | 6.83 mN/m and 6.87 mN/m
293.46 K, w2 = 0.2862 | 6.81 mN/m and 6.79 mN/m
293.53 K, w2 = 0.5293 | 6.9 mN/m
293.53 K, w2 = 0.7181 | 7.06 mN/m and 7.09 mN/m
293.8 K, w2 = 0.3843 | 6.67 mN/m and 6.69 mN/m
